Reference: US20240400584A1, “COMPOUNDS AND METHODS FOR MODULATING SPLICING” (REMIX THERAPEUTICS INC., priority 2021, published 2024)

Key:
MYB [1] = test: Gene panel canonical junction qPCR assay, MYB CJ mRNA (Table 7); format: cell-based; conditions: Homo sapiens, read-out: MYB CJ mRNA decrease IC50
Procedure, shortened: (§1)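 Canonical-junction transcript levels are quantified by RT-qPCR after compound treatment of K562 or A673 cells. Primers or a CY5 probe overlap the exon junction; signals are normalized to GAPDH, GUSB or PPIA and to DMSO, then scaled to a set ΔCt assay window and fitted for IC50.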

HTT [2] = test: Gene panel canonical junction qPCR assay, HTT CJ mRNA (Table 7); format: cell-based, human; conditions: Homo sapiens, read-out: HTT CJ mRNA decrease IC50
Procedure, shortened: as §1

HTT [3] = test: RT-qPCR splicing assay, HTT AJ/CJ mRNA; format: cell-based, human; conditions: Homo sapiens, 24 h, A673 or K562 cells; for IC50: decrease in canonical junction mRNA; for AC50: increase in alternative junction mRNA
Procedure, shortened: (§2)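 Cells: A673 (DMEM/10% FBS) or K562 (IMDM/10% FBS). Dosing: 11-pt 3-fold, top 10 uM final, DMSO ≤0.25%, 24 h, 37° C. Readout: one-step RT-qPCR on lysate, CJ vs AJ isoforms; ΔCt vs housekeeper, ΔΔCt vs DMSO, 2^(−ΔΔCt) RQ → % response.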

SMN2 = test: Gene panel canonical junction qPCR assay, SMN2 CJ mRNA (Table 7); format: cell-based; conditions: Homo sapiens, read-out: SMN2 CJ mRNA decrease IC50
Procedure, shortened: as §1

Target C = test: Gene panel canonical junction qPCR assay, Target C CJ mRNA (Table 7); format: cell-based, human; conditions: Homo sapiens, read-out: Target C CJ mRNA decrease IC50
Procedure, shortened: as §1

MYB [4] = test: RT-qPCR splicing assay, MYB AJ/CJ mRNA; format: cell-based; conditions: Homo sapiens, A673 or K562 cells, 24 hours; for IC50: decrease in canonical junction mRNA; for AC50: increase in alternative junction mRNA
Procedure, shortened: as §2

Row | IC50 (MYB [1]) [nM] | IC50 (HTT [2]) [nM] | IC50 (HTT [3]) [nM] | IC50 (SMN2) [nM] | IC50 (Target C) [nM] | IC50 (MYB [4]) [nM] | Structure (SMILES) | AC50 (HTT [3]) [nM] | AC50 (MYB [4]) [nM]
1 | > 10000 | > 10000 | > 10000 | > 10000 | > 10000 | > 10000 | c1cnn(-c2ccc3c(c2)COc2nc(N4CCC5(CCNCC5)C4)ccc2-3)c1 [Compound 182] | > 10000 | > 10000
2 | 100 to 1000 | < 100 | < 100 | < 100 | < 100 | 100 to 1000 | COc1cc(-c2ccc3c(c2)COc2nc(N4CC[C@@H](NC(C)(C)C)C4)ccc2-3)cnn1 [Compound 265, (3R)—N-tert-butyl-1-[8-(6-methoxypyridazin-4-yl)-6H-isochromeno[3,4-b]376yrrolid-3-yl]376yrrolidine-3-amine] | < 100 | < 100
3 | 100 to 1000 | 100 to 1000 | 100 to 1000 | < 100 | 1000 to 10000 | 100 to 1000 | COc1cc(-c2ccc3c(c2)COc2cc(N4CCC(NC(C)(C)C)C4)ncc2-3)cnn1 (stereo not drawn) [Compound 289, N-(tert-butyl)-1-(8-(6-methoxypyridazin-4-yl)-6H-isochromeno [4,3-c]pyridin-3-yl)pyrrolidin-3-amine] | 1000 to 10000 | 1000 to 10000
4 | > 10000 | 1000 to 10000 | 1000 to 10000 | > 10000 | > 10000 | > 10000 | CN(C)[C@H]1[C@@H]2CN(c3ccc4c(n3)OCc3cc(-n5cccn5)ccc3-4)C[C@@H]21 [Compound 197] | > 10000 | 1000 to 10000
5 | > 10000 | > 10000 | > 10000 | > 10000 | > 10000 | > 10000 | c1cnn(-c2ccc3c(c2)COc2nc(N4CCCC5(CNC5)C4)ccc2-3)c1 [Compound 181] | > 10000 | > 10000
6 | > 10000 | 1000 to 10000 | 1000 to 10000 | 1000 to 10000 | > 10000 | > 10000 | CC(C)(C)NC1CCN(c2ccc3c(n2)OCc2cc(-c4ccnnc4)ccc2-3)C1 (stereo not drawn) [Compound 272, N-tert-butyl-1-[8-(pyridazin-4-yl)-6H-isochromeno[3,4-b]pyridin-3-yl]pyrrolidin-3-amine] | 1000 to 10000 | > 10000
7 | 1000 to 10000 | 100 to 1000 | 100 to 1000 | 100 to 1000 | 100 to 1000 | 1000 to 10000 | COc1cc(-c2ccc3c(c2)COc2nc(N4CCC(NC5CCC5)C4)ccc2-3)cnn1 (stereo not drawn) [Compound 280, N-cyclobutyl-1-[8-(6-methoxypyridazin-4-yl)-6H-isochromeno[3,4-b]pyridin-3-yl]pyrrolidin-3-amine] | 100 to 1000 | 100 to 1000
8 | > 10000 | > 10000 | > 10000 | > 10000 | > 10000 | > 10000 | c1cnn(-c2ccc3c(c2)COc2nc(N4CCCC5(CCNC5)C4)ccc2-3)c1 (stereo not drawn) [Compound 192] | > 10000 | > 10000
9 | 100 to 1000 | < 100 | < 100 | < 100 | 100 to 1000 | 100 to 1000 | COc1cc(-c2ccc3c(c2)COc2nc(N4CCN[C@H](C5CC5)C4)ccc2-3)cnn1 [Compound 297] | 100 to 1000 | 100 to 1000
10 | 1000 to 10000 | 100 to 1000 | 100 to 1000 | 100 to 1000 | > 10000 | 1000 to 10000 | COc1cc(-c2ccc3c(c2)COc2nc(N4CCC(N5CCC5)C4)ccc2-3)cnn1 (stereo not drawn) [Compound 312] | 1000 to 10000 | 1000 to 10000
11 | > 10000 | > 10000 | > 10000 | > 10000 | > 10000 | > 10000 | CN1CCC2(CC1)CCN2c1ccc2c(n1)OCc1cc(-c3cn[nH]c3)ccc1-2 [Compound 227, 7-methyl-1-[8-(1H-pyrazol-4-yl)-6H-isochromeno[3,4-b]pyridin-3-yl]-1,7-diazaspiro[3.5]nonane] | > 10000 | > 10000
12 | 100 to 1000 | 100 to 1000 | 100 to 1000 | 100 to 1000 | 100 to 1000 | 100 to 1000 | c1cnn(-c2ccc3c(c2)COc2nc(N4CCC5(CC4)CNC5)ccc2-3)c1 [Compound 169] | 100 to 1000 | 100 to 1000
13 | 1000 to 10000 | 100 to 1000 | 100 to 1000 | 100 to 1000 | 1000 to 10000 | 1000 to 10000 | COc1cc(-c2ccc3c(c2)COc2nc(N4CC[C@H](NC(C)(C)C)C4)ncc2-3)cnn1 [Compound 279] | 100 to 1000 | 1000 to 10000
14 | > 10000 | > 10000 | 1000 to 10000 | > 10000 | 1000 to 10000 | > 10000 | CC1(C)CC(Nc2ccc3c(n2)CCOc2cc(-n4cccn4)ccc2-3)CC(C)(C)N1 [Compound 137] | 1000 to 10000 | > 10000

Row | Structure (SMILES) | IC50 (MYB [1]) [nM] | IC50 (HTT [2]) [nM] | IC50 (HTT [3]) [nM] | IC50 (SMN2) [nM] | IC50 (Target C) [nM] | IC50 (MYB [4]) [nM] | AC50 (HTT [3]) [nM] | AC50 (MYB [4]) [nM]
15 | CN(c1ccc2c(n1)OCc1cc(-n3cccn3)ccc1-2)[C@H]1C[C@]2(C)CC[C@](C)(C1)N2 [Compound 180] | 100 to 1000 | < 100 | < 100 | < 100 | 100 to 1000 | 100 to 1000 | < 100 | 100 to 1000
16 | C[C@]12CC[C@](C)(C[C@@H](Oc3ccc4c(n3)OCc3cc(-n5cccn5)ccc3-4)C1)N2 [Compound 228] | 1000 to 10000 | 100 to 1000 | 100 to 1000 | 100 to 1000 | 1000 to 10000 | 1000 to 10000 | 1000 to 10000 | 1000 to 10000
17 | COc1cc(-c2cc3c(cc2F)-c2ccc(N(C)[C@@H]4C[C@H]5CC[C@@H](C4)N5)nc2OC3)cnn1 [Compound 242] | 100 to 1000 | < 100 | < 100 | < 100 | < 100 | 1000 to 10000 | < 100 | < 100
18 | Fc1cc2c(cc1-c1cn[nH]c1)COc1nc(O[C@@H]3C[C@H]4CC(F)(F)[C@@H](C3)N4)ccc1-2 [Compound 236] | 100 to 1000 | < 100 | < 100 | < 100 | 100 to 1000 | 100 to 1000 | < 100 | < 100
19 | COc1cc(-c2ccc3c(c2)COc2nc(NC4CC5CC(F)(F)C(C4)N5)ccc2-3)cnn1 (stereo not drawn) [Compound 240, 6,6-difluoro-N-[8-(6-methoxypyridazin-4-yl)-6H-isochromeno[3,4-b]pyridin-3-yl]-8-azabicyclo[3.2.1]octan-3-amine] | 1000 to 10000 | < 100 | < 100 | 100 to 1000 | 100 to 1000 | 1000 to 10000 | 100 to 1000 | 1000 to 10000
20 | Fc1cc2c(cc1-c1cn[nH]c1)COc1nc(O[C@@H]3C[C@H]4CC[C@@H](C3)N4)ccc1-2 [Compound 260] | 100 to 1000 | < 100 | < 100 | < 100 | 100 to 1000 | 100 to 1000 | < 100 | < 100
21 | [2H]C([2H])([2H])N(c1ccc2c(n1)OCc1cc(-n3cccn3)ccc1-2)C1CC(C)(C)NC(C)(C)C1 [Compound 199] | > 10000 | 1000 to 10000 | 1000 to 10000 | 1000 to 10000 | > 10000 | > 10000 | 1000 to 10000 | > 10000
